Here are results for three molecules from ChEMBL document CHEMBL4699427, “A3- and A2B-fluorocorroles: synthesis, X-ray characterization and antiviral activity evaluation against human cytomegalovirus infection” (RSC Med Chem, 2020).

Active and inactive are the calls of the source. No cut-off for these calls is given here.

Data set [1] in a line: Cytotoxicity against human MRC5 cells assessed as reduction in cell viability incubated for 6 days by Hoechst 33342 staining based microscopic analysis. To be noted: time 6 day.
Data set [2] relates to Human betaherpesvirus 5. The data set is described as follows: Antiviral activity against Human Cytomegalovirus infected in human MRC5 cells assessed as reduction in infection rate incubated for 6 days by Hoechst 33342 staining based microscopic analysis. The following applies: Human betaherpesvirus 5, MRC5, 144 h; read-out: IC50. It counts as functional, cell-based.
The subject of data set [3] is Human betaherpesvirus 5. The data set is described as follows: Antiviral activity against human Cytomegalovirus infected in human ARPE-19 cells assessed as reduction in infection rate incubated for 12 days by Hoechst 33342 staining based microscopic analysis. It counts as functional, cell-based. To be noted: Human betaherpesvirus 5, ARPE-19, 288 h.
Data set [4] in a line: Selectivity index, ratio of CC50 for human MRC5 cells to IC50 for human Cytomegalovirus infected in human MRC5 cells incubated for 6 days. To be noted: time 6 day, read-out: Ratio CC50/IC50. It counts as toxicity, cell-based.
A short description of data set [5]: Selectivity index, ratio of CC50 for human MRC5 cells to IC50 for human Cytomegalovirus infected in human ARPE-19 cells incubated for 12 days. It counts as toxicity, cell-based. To be noted: time 6 day, read-out: Ratio CC50/IC50.
The nature of data set [6]: Cytotoxicity against human MRC5 cells assessed as assessed as number of fluorescent nuclei incubated for 6 days by Hoechst 33342 staining based microscopic analysis. It counts as cell-based. The following applies: time 6 day.
Data set [7] in a line: Cytotoxicity against human ARPE-19 cells assessed as assessed as number of fluorescent nuclei incubated for 6 days by Hoechst 33342 staining based microscopic analysis. It counts as cell-based. To be noted: time 6 day.
The test system of data set [8] is Human betaherpesvirus 5. The data set is described as follows: Antiviral activity against human Cytomegalovirus infected in human ARPE-19 cells assessed as reduction in virus-induced cytopathic effect at 0.75 uM incubated for 10 days by Hoechst 33342 staining based microscopic analysis. It counts as functional, cell-based. To be noted: time 10.0 day. A general note: Cytopathic effects are the visible damage that an infection or toxin causes in cultured cells.

Data set [9] deals with Human betaherpesvirus 5. The data set is described as follows: Antiviral activity against human Cytomegalovirus harboring ANCHOR assessed as reduction in infection rate incubated for 1 hr followed by cell line addition and measured after 24 hrs by Hoechst 33342 staining based microscopic analysis. It counts as functional. The following applies: ARPE-19, dose microM 0.187-3, time 25.0 hrs.

The subject of data set [10] is Human betaherpesvirus 5. The data set is described as follows: Antiviral activity against human Cytomegalovirus harboring ANCHOR assessed as reduction in viral DNA replication incubated for 1 hr followed by cell line addition and measured after 24 hrs by Hoechst 33342 staining based microscopic analysis. It counts as functional. The following applies: ARPE-19, dose microM 0.187-3, time 25.0 hrs.

The subject of data set [11] is Human betaherpesvirus 5. The data set is described as follows: Virucidal activity against human Cytomegalovirus infected in APRE-19 cells at 0.187 to 3 uM preincubated for 1 hr with virus followed by cell line addition and measured after 24 hrs by Hoechst 33342 staining based microscopic analysis. It counts as functional. The following applies: ARPE-19, dose microM 0.187-3, time 25.0 hrs.

Data set [12] has as its system Human betaherpesvirus 5. The data set is described as follows: Antiviral activity against human Cytomegalovirus infected in human ARPE-19 cells assessed as reduction in viral DNA replication at 0.187-3 uM incubated for 18 hrs by Hoechst 33342 staining based microscopic analysis. It counts as functional, cell-based. To be noted: dose microM 0.187-3, time 18.0 hrs.

Data set [13] concerns Human betaherpesvirus 5. The data set is described as follows: Antiviral activity against human Cytomegalovirus harboring ANCHOR infected in human ARPE-19 cells assessed as reduction in viral infection rate at 0.187 to 3 uM incubated for 18 hrs post infection by Hoechst 33342 staining based microscopic analysis. It counts as functional, cell-based. To be noted: dose microM 0.187-3, time 18.0 hrs.

For data set [14], the system named is Human betaherpesvirus 5. The data set is described as follows: Induction of viral absorption in human Cytomegalovirus harboring ANCHOR infected in human ARPE-19 cells at 0.187 to 3 uM incubated for 18 hrs post infection by Hoechst 33342 staining based microscopic analysis. It counts as functional, organism-based. The following applies: dose microM 0.187-3, time 18.0 hrs.

Data set [15] deals with Human betaherpesvirus 5. The data set is described as follows: Induction of viral entry in human Cytomegalovirus harboring ANCHOR infected in human ARPE-19 cells at 0.187 to 3 uM incubated for 18 hrs by Hoechst 33342 staining based microscopic analysis. It counts as functional, organism-based. The following applies: dose microM 0.187-3, time 18.0 hrs.
Data set [16] relates to Human betaherpesvirus 5. The data set is described as follows: Antiviral activity against human Cytomegalovirus infected in human MRC5 cells assessed as reduction in viral infection rate at 0.75 uM incubated for 6 days by Hoechst 33342 staining based microscopic analysis. It counts as functional, cell-based. To be noted: time 6.0 day.
The test system of data set [17] is Human betaherpesvirus 5. The data set is described as follows: Antiviral activity against human Cytomegalovirus infected in human MRC5 cells assessed as reduction in viral replication at 0.75 uM incubated for 6 days by Hoechst 33342 staining based microscopic analysis. It counts as functional, cell-based. To be noted: time 6.0 day.
In data set [18] the test system is Human betaherpesvirus 5. The data set is described as follows: Antiviral activity against human Cytomegalovirus infected in human MRC5 cells assessed as reduction in infection rate at 0.187 to 3 uM treated 24 hrs after infection measured after 6 days by Hoechst 33342 staining based microscopic analysis. It counts as functional, cell-based. To be noted: dose microM 0.187-3, time 6.0 day.

Data set [19] deals with Human betaherpesvirus 5. The data set is described as follows: Antiviral activity against human Cytomegalovirus infected in human MRC5 cells assessed as reduction in infection rate at 0.187 to 3 uM preincubated for 1 hr with cells by Hoechst 33342 staining based microscopic analysis. It counts as functional, cell-based. The following applies: dose microM 0.187-3, time 1.0 hrs.

Another data set relates to RK13. The data set is described as follows: Effect on gB expression in human Cytomegalovirus harboring ANCHOR infected in rabbit RK13 cells assessed as reduction in replication at late phase by at 5 uM by immunofluorescence assay. It counts as functional, cell-based. To be noted: Human betaherpesvirus 5.
In data set [20] the test system is Human betaherpesvirus 5. The data set is described as follows: Antiviral activity against Human cytomegalovirus harboring ANCHOR infected in ARPE-19 cells assessed as reduction in viral infection at 0.75 uM measured after 6 days by microscopic analysis relative to control. It counts as functional, cell-based. To be noted: time 6.0 day.
Data set [21] relates to Human betaherpesvirus 5. The data set is described as follows: Antiviral activity against human Cytomegalovirus harboring ANCHOR infected in ARPE-19 cells assessed as reduction in infection rate preincubated for 2 hrs with cells followed by infected with virus and measured after 24 hrs by Hoechst 33342 staining based microscopic analysis. It counts as functional, cell-based. The following applies: dose microM 0.187-3, time 26.0 hrs.

The test system of data set [22] is Human betaherpesvirus 5. The data set is described as follows: Antiviral activity against human Cytomegalovirus harboring ANCHOR infected in ARPE-19 cells assessed as reduction in viral DNA replication preincubated for 2 hrs with cells followed by infected with virus and measured after 24 hrs by Hoechst 33342 staining based microscopic analysis. It counts as functional, cell-based. To be noted: dose microM 0.187-3, time 26.0 hrs.

Data set [23] has as its system Human betaherpesvirus 5. The data set is described as follows: Virucidal activity against human Cytomegalovirus infected in MRC-5 cells at 0.187 to 3 uM preincubated for 1 hr with virus followed by cell line addition and measured after 24 hrs by Hoechst 33342 staining based microscopic analysis. It counts as functional. The following applies: MRC5, dose microM 0.187-3, time 25.0 hrs.

The subject of data set [24] is Human betaherpesvirus 5. The data set is described as follows: Induction of viral absorption in human Cytomegalovirus harboring ANCHOR infected in human MRC-5 cells at 0.187 to 3 uM incubated for 18 hrs post infection by Hoechst 33342 staining based microscopic analysis. The following applies: MRC5, dose microM 0.187-3, time 18.0 hrs. It counts as functional, organism-based.

In data set [25] the test system is Human betaherpesvirus 5. The data set is described as follows: Induction of viral entry in human Cytomegalovirus harboring ANCHOR infected in human MRC-5 cells at 0.187 to 3 uM incubated for 18 hrs by Hoechst 33342 staining based microscopic analysis. To be noted: MRC5, dose microM 0.187-3, time 18.0 hrs. It counts as functional, organism-based.
The subject of data set [26] is Human betaherpesvirus 5. The data set is described as follows: Antiviral activity against human Cytomegalovirus UL56 infected in human MRC5 cells assessed as reduction in infection rate incubated for 6 days by Hoechst 33342 staining based microscopic analysis. It counts as functional, cell-based. To be noted: Human betaherpesvirus 5, UL56, MRC5, 144 h.

The CC50 is the concentration at which the toxic effect on the cells reaches its halfway point. Broadly, the IC50 is the concentration needed to halve the response being measured. In the case of `Fc1cc(F)c(F)c(-c2c3nc(c4ccc([nH]4)c(-c4c(F)c(F)cc(F)c4F)c4ccc([nH]4)c(-c4c(F)c(F)cc(F)c4F)c4ccc2[nH]4)C=C3)c1F`, the CC50 at 144 h in data set [1] was determined as 25.3 µM; in [6] it was 3.4 µM; in data set [7], 22.5 µM. The IC50 with Human betaherpesvirus 5 [2] turned out to be 1.04 µM; in the data set with Human betaherpesvirus 5 [3] it was 0.16 µM. For the same molecule, the selectivity ratio at 144 h is over 24 in [4] and over 312 in data set [5].

Take `Fc1c(F)c(F)c(-c2c3nc(c4ccc([nH]4)c(-c4c(F)c(F)c(F)c(F)c4F)c4ccc([nH]4)c(-c4c(F)c(F)c(F)c(F)c4F)c4ccc2[nH]4)C=C3)c(F)c1F`: the CC50 at 144 h in data set [1] amounted to 3.27 µM. The IC50 in the data set on Human betaherpesvirus 5 [2] was 1.19 µM; in the data set with Human betaherpesvirus 5 [3], 0.96 µM. In addition, the result in the data set on Human betaherpesvirus 5 [8], in the data set with Human betaherpesvirus 5 [12], in the data set on Human betaherpesvirus 5 [14], in the data set with Human betaherpesvirus 5 [15], in the data set with Human betaherpesvirus 5 [16] and in the data set on Human betaherpesvirus 5 [17] was Active. For the same molecule, the result in the data set on Human betaherpesvirus 5 [18], in the data set with RK13 and in the data set with Human betaherpesvirus 5 [20] was Active. Moreover, the Activity result in the data set with Human betaherpesvirus 5 [9], in the data set with Human betaherpesvirus 5 [10], in the data set with Human betaherpesvirus 5 [24] and in the data set on Human betaherpesvirus 5 [25] was “Dose-dependent effect” throughout. In addition, the result with Human betaherpesvirus 5 [11], in the data set with Human betaherpesvirus 5 [13], in the data set on Human betaherpesvirus 5 [19], in the data set with Human betaherpesvirus 5 [21], in the data set on Human betaherpesvirus 5 [22] and in the data set on Human betaherpesvirus 5 [23] was inactive. Besides, the selectivity ratio at 144 h in [4] worked out at 2.75; in data set [5], 27.

With `COc1cccc(N2CCN(C3=Nc4c(F)cccc4[C@H](CC(=O)O)N3c3cc(C(F)(F)F)ccc3OC)CC2)c1` [LETERMOVIR], in the data set with Human betaherpesvirus 5 [26], the IC50 was 0.004 µM.
